Experimental data from ChEMBL document CHEMBL1140175, “Synthesis and evaluation of novel boron-containing complexes of potential use for the selective treatment of malignant melanoma” (J Med Chem, 2008).
Activity calls are given as the source filed them. The rule behind the calls is not given here.

Tests used:
[1] = target: T1, Tyrosinase (Agaricus bisporus) (UniProt O42713); assay: Binding affinity to mushroom tyrosinase assessed as […]
T1 sequence (whole entry): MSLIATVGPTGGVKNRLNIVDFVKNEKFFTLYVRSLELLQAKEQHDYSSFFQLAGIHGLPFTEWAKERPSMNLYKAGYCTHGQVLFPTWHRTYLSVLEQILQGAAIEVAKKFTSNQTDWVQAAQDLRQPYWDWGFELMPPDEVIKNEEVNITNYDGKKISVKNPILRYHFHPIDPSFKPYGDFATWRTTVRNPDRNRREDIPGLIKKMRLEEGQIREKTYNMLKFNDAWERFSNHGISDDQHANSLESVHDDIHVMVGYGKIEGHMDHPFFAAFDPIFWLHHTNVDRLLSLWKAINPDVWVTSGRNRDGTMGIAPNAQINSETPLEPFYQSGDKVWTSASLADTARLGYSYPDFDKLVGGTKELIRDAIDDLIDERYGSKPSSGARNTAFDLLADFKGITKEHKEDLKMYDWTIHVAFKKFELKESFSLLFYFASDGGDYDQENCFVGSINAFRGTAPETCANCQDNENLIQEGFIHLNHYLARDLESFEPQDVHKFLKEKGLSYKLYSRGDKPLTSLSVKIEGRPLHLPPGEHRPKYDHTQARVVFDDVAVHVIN

MCF7 = assay: Cytotoxicity against human MCF7 cells assessed as LDH release up to 100 uM after 6 hrs by colorimetric assay; format: functional
[2] = Cellular uptake in human SK-MEL-23 cells assessed as boron content at 50 uM after 6 hrs relative to control; format: ADME, cell-based
[3] = Cytotoxicity against human SK-MEL-23 cells assessed as LDH release up to 100 uM after 6 hrs by colorimetric assay; format: functional
[4] = Cellular uptake in human SK-MEL-23 cells assessed as boron content at 50 uM relative to control; format: ADME, cell-based
[5] = Cellular uptake in human SK-MEL-23 cells assessed as boron content at 50 uM after 2 hrs relative to control; format: ADME, cell-based

Row | Activity [1] | Activity [2] [%] | Activity [4] | Activity [5] [%] | SMILES | Activity (MCF7) [%] | Activity [3] [%]
1 | Active |  |  |  | O=C1O[B-]2([NH2+][C@H]1Cc1ccc(O)c(O)c1)C1CCCC2CCC1 (some centres undefined) |  | 
2 | inactive |  |  |  | O=C1O[B-]2([NH2+][C@H]1Cc1c[nH]c3ccc(O)cc13)C1CCCC2CCC1 (some centres undefined) |  | 
3 | Active | > 50 | Not Active | 50 | O=C1O[B-]2([NH2+][C@H]1Cc1ccc(O)cc1)C1CCCC2CCC1 (some centres undefined) | <5 | <5
4 | inactive |  |  |  | O=C1O[B-]2([NH2+][C@H]1Cc1ccccc1)C1CCCC2CCC1 (some centres undefined) |  | 
